Values quoted from earlier work as cited in article PMC9851200, “Multiparameter phenotypic screening for endogenous TFEB and TFE3 translocation identifies novel chemical series modulating lysosome function” (Autophagy, 2022).

How the values were obtained:
Set-up in all cases: method as in original PKIS2 published data
[1] = target: kinases (KINOMEscan panel) (Homo sapiens, UniProt Q13464); details: ROCK1; Published KINOMEscan; ref original PKIS2 published data; cited from earlier work
[2] = target: kinases (KINOMEscan panel) (Homo sapiens, UniProt Q9HAZ1); details: kinase CLK4; Published KINOMEscan; ref original PKIS2 published data; cited from earlier work
[3] = target: kinases (KINOMEscan panel) (Homo sapiens, UniProt P49841); details: Published KINOMEscan; ref original PKIS2 published data; cited from earlier work
[4] = target: kinases (KINOMEscan panel) (Homo sapiens, UniProt Q8NEV4); details: kinase MYO3A; Published KINOMEscan; ref original PKIS2 published data; cited from earlier work
[5] = target: T1, kinases (KINOMEscan panel) (Homo sapiens, UniProt P51956); details: kinase NEK3; Published KINOMEscan; ref original PKIS2 published data; cited from earlier work
T1 sequence (P51956 1-506): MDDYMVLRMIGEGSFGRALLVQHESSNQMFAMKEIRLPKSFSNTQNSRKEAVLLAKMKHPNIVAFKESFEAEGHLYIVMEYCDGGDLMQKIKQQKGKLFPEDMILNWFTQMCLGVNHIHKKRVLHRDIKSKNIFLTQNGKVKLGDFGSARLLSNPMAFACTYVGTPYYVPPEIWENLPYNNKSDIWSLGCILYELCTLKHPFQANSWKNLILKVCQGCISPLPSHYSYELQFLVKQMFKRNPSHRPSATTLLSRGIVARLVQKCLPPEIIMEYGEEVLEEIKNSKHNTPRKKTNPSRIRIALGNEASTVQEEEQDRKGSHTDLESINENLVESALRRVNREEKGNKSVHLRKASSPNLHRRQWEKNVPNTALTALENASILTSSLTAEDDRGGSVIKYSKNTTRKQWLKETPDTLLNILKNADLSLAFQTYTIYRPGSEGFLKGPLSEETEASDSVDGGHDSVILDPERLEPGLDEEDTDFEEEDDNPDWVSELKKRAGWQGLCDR

[6] = target: kinases (KINOMEscan panel) (Homo sapiens, UniProt Q16513); details: kinase PKN2; Published KINOMEscan; ref original PKIS2 published data; cited from earlier work
[7] = target: T2, kinases (KINOMEscan panel) (Homo sapiens, UniProt P36888); details: Published KINOMEscan, ref original PKIS2 published data, cited from earlier work
T2 sequence (P36888 27-993): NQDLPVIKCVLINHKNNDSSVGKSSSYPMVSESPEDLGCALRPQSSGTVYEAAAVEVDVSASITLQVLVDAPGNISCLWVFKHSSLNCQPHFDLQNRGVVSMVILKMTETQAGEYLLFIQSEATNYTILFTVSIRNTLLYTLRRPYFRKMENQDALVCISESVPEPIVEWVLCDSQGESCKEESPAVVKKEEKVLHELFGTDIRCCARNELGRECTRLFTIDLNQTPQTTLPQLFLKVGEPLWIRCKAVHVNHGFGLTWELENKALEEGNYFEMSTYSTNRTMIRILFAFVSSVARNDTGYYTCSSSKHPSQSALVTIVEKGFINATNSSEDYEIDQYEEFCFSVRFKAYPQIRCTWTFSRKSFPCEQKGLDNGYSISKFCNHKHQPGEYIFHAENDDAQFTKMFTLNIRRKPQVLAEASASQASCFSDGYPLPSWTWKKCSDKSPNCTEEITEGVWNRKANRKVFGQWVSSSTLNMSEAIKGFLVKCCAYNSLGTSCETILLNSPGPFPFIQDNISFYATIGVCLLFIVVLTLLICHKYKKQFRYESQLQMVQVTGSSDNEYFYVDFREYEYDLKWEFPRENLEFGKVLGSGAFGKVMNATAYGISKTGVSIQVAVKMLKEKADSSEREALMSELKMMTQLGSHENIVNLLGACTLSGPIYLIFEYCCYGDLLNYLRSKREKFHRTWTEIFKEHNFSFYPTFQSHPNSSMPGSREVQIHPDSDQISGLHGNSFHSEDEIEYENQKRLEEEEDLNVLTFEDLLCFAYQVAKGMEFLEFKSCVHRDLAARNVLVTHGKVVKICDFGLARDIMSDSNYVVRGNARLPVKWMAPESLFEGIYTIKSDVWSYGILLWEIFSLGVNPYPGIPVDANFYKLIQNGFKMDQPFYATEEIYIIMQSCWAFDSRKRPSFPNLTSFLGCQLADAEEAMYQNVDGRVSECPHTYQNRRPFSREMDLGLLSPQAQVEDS

[8] = target: T3, kinases (KINOMEscan panel) (Homo sapiens, UniProt Q08881); details: kinase ITK; Published KINOMEscan; ref original PKIS2 published data; cited from earlier work
T3 sequence (Q08881 1-620): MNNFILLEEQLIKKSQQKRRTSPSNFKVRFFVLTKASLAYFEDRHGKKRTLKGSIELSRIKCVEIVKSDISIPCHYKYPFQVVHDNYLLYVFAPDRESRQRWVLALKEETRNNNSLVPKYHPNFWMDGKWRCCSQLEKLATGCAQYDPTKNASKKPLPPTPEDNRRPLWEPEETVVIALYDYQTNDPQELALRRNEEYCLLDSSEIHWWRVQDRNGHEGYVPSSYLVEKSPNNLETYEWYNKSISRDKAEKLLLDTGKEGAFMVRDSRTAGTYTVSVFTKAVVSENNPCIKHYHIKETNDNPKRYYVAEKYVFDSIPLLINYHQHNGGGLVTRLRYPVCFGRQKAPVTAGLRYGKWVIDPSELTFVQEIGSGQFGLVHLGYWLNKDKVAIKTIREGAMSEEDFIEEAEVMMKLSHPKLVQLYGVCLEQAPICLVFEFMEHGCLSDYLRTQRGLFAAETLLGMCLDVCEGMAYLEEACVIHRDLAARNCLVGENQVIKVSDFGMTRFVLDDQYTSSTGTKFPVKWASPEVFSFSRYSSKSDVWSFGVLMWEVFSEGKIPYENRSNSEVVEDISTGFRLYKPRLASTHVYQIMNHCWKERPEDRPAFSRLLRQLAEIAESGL

Chain of kinases (KINOMEscan panel) (Homo sapiens, UniProt P49841) (P49841 whole entry): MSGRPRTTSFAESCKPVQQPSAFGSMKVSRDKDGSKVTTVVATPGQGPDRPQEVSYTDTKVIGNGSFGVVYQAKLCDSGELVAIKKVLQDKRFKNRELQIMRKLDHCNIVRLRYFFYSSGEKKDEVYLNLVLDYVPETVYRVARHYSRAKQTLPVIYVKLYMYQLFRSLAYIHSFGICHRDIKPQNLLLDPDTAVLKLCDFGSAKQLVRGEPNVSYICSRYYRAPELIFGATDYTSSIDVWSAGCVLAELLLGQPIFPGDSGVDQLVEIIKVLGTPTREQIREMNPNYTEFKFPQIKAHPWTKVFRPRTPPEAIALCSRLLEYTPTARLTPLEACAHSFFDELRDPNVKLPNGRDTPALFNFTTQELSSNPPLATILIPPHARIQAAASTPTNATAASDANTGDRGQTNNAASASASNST
Chain of kinases (KINOMEscan panel) (Homo sapiens, UniProt Q8NEV4) (Q8NEV4 whole entry): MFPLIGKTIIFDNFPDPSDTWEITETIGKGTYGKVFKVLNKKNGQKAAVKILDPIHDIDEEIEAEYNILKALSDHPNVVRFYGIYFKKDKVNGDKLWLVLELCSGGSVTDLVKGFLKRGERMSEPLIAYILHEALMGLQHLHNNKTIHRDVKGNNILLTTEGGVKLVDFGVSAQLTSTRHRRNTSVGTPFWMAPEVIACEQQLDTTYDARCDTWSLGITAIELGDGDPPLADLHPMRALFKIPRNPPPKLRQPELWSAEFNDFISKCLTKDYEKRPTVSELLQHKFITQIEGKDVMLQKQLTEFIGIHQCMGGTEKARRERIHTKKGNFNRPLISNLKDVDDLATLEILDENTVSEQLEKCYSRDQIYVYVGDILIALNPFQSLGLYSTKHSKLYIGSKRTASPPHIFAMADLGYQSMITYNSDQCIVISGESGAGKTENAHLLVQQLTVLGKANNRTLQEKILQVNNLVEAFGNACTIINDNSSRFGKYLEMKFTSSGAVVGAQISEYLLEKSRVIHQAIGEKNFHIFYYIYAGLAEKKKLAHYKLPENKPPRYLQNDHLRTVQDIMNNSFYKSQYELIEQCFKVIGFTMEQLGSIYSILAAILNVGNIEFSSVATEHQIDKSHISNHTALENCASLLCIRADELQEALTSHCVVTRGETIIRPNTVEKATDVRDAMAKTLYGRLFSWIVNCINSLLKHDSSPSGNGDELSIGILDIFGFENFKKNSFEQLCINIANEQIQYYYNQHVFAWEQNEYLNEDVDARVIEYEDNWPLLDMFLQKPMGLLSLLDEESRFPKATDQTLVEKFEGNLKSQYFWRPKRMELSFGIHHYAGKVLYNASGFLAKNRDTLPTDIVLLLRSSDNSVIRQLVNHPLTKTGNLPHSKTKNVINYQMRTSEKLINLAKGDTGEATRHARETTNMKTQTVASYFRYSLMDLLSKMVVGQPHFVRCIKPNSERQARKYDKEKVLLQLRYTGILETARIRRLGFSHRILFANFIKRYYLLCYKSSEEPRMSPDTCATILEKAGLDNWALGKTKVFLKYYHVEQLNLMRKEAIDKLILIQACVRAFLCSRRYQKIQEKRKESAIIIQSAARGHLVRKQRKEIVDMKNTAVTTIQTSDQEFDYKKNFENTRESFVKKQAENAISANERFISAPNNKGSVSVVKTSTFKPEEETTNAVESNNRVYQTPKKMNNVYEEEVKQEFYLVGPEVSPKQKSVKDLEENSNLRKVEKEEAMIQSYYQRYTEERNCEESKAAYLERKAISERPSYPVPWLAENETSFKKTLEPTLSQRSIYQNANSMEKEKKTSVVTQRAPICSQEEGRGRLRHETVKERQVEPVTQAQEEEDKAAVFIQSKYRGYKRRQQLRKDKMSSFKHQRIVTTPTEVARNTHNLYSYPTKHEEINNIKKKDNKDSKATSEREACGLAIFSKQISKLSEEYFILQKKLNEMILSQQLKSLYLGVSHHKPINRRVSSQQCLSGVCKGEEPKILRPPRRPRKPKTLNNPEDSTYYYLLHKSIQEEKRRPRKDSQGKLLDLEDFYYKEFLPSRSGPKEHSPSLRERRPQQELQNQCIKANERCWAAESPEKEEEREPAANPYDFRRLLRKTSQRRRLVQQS
Chain of kinases (KINOMEscan panel) (Homo sapiens, UniProt Q13464) (Q13464 whole entry): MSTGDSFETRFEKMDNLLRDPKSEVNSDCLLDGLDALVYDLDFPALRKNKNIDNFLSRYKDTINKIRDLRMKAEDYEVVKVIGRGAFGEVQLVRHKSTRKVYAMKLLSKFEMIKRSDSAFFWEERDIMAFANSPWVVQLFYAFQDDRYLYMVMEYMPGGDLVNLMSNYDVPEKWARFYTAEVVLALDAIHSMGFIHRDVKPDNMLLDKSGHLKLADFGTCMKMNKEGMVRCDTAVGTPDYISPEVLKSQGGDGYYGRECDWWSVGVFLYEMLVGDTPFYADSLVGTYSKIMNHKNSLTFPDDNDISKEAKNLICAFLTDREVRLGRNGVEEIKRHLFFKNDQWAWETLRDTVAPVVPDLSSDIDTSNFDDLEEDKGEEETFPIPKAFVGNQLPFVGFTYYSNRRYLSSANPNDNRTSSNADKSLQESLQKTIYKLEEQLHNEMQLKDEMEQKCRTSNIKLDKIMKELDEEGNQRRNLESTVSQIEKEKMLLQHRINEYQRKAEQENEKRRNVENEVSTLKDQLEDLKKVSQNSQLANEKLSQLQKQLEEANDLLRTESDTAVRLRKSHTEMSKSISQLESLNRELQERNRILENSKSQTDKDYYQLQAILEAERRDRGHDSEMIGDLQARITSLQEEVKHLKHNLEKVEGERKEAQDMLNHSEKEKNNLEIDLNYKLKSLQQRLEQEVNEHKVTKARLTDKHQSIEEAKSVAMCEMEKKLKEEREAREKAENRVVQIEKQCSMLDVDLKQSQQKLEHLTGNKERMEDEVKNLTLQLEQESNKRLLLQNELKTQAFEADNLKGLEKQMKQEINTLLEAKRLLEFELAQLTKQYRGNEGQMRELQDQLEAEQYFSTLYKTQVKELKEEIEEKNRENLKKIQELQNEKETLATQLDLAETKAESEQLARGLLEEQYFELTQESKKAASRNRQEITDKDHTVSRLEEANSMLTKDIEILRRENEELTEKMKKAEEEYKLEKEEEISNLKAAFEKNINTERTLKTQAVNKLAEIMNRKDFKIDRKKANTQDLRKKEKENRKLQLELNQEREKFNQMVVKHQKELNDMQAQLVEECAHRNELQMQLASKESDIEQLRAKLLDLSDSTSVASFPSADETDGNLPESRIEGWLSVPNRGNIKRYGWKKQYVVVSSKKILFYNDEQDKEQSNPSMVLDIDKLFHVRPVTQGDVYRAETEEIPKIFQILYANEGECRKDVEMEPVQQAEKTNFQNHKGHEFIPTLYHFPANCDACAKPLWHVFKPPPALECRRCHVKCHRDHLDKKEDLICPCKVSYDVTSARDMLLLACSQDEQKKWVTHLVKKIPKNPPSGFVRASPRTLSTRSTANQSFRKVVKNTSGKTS
Chain of kinases (KINOMEscan panel) (Homo sapiens, UniProt Q16513) (Q16513 whole entry): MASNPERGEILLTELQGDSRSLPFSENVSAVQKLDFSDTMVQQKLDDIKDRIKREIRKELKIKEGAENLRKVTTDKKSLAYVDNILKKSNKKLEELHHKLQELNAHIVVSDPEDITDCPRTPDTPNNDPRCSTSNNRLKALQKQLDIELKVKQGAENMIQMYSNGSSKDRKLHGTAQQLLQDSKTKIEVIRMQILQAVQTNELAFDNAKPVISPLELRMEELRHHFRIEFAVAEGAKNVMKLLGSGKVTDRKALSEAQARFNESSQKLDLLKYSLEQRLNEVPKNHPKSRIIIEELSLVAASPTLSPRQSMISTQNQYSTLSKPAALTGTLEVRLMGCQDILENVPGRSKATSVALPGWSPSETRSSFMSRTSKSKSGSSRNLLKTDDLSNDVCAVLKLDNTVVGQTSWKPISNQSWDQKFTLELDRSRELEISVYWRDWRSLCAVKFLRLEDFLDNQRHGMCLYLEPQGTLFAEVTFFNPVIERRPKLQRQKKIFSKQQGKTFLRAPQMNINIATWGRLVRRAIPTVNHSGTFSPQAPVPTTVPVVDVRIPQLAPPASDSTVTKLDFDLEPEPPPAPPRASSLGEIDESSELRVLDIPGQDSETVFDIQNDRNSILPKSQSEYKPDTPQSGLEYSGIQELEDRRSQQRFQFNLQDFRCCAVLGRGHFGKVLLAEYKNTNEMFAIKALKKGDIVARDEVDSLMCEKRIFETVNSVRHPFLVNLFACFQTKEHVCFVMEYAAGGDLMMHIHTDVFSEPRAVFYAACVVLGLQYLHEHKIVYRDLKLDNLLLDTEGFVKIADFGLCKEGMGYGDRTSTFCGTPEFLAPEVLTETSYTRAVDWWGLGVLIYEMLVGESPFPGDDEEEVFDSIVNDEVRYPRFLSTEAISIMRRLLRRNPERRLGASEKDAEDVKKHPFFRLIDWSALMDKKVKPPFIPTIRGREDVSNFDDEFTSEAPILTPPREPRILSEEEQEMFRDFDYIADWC
Chain of kinases (KINOMEscan panel) (Homo sapiens, UniProt Q9HAZ1) (Q9HAZ1 whole entry): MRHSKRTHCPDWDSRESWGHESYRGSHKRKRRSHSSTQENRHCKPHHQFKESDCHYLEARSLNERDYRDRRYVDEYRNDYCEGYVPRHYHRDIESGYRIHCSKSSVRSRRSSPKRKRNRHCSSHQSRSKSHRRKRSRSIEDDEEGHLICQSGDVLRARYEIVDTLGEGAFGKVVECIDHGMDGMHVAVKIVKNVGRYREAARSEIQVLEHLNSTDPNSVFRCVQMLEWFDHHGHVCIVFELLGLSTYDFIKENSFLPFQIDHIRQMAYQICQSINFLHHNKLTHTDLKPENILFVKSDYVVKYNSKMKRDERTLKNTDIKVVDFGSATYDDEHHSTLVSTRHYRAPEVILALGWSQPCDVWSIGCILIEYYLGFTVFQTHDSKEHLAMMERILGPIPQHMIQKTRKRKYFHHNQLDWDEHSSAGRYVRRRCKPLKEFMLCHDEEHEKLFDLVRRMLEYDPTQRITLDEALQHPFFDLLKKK

## Cc1cccc(-c2nc(Nc3ccncc3)c3ccccc3n2)n1 [NK215]
[1]
  KINOMEscan ROCK1: 0
[2]
  KINOMEscan CLK4: 0
[3]
  KINOMEscan GSK3B: 0
[4]
  KINOMEscan MYO3A: 0
[5]
  KINOMEscan NEK3: 30
[6]
  KINOMEscan PKN2: 0
[7]; FLT3
  KINOMEscan FLT3: 0
[7]; kinase FLT3-autoinhibited
  KINOMEscan FLT3-autoinhibited: 0
[8]
  KINOMEscan ITK: 24
